According to patent publication US20230391841A1, “MACROCYCLIC PEPTIDES” (Herantis Pharma OYJ, priority 2019, published 2023):
Bridge positions count the residues as written; N and C are the ends. Peptide text beside a SMILES is read from it.

Columns and labels:
[1] = In vitro metabolic stability in rat plasma; type: in vitro ADME; conditions: 1 μM, 37° C., up to 120 min
Procedure: The linear and macrocyclic compounds 1-14 and 23-26 (SEQ ID NOs: 1-14 and 23-26) were incubated in concentration 1 μM with rat plasma (Sprague-Dawley, male; 400 μl) for different time points (0, 20, 40, 60 or 120 min) at 37° C. The incubation was terminated by acetonitrile. The collected samples were centrifuged for 20 min at 2272×g and analyzed. io Stock solutions were prepared using 50% DMSO, and the compounds were spiked 1/100 to incubation to have final DMSO content of 0.5%. The samples were analyzed by UHPLC/PDA with high resolution mass spectrometry (QE-Orbitrap-MS on DDI mode) to monitor disappearance of the compound. Enalapril 1 μM was used as a disappearance rate control. For analysis of compounds 9, 10, 13 and 14 stock solutions were prepared with PBS, and samples were analyzed by UHPLC-ToF mass spectrometry. The analytical method was optimized by using the parent compounds for optimum chromatographic properties (peak shape and retention) and mass spectrometric ionization. The ion chromatograms were extracted from the total ion chromatograms using calculated monoisotopic accurate masses with 5 mDa window. Disappearance was based on LC/MS peak areas, marking 0 min as 100%.
The first-order rate constants k (min-1) of the metabolism were obtained from the slope of time versus logarithm (% of remaining compound) plot using Excel software. The in vitro half-life (t1/2) of study compound is defined as: t1/2=In2/k. Calculated half-life is based on compound disappearance from rat plasma.

human hepatocytes = assay: In vitro metabolic stability in human hepatocytes; type: in vitro ADME; conditions: 1 μM, 37° C., up to 60 min
Procedure: The linear or macrocyclic compounds 1-8, 11-14 and 23-26 (SEQ ID NOs: 1-8, 11-14 and 23-26) were incubated in concentration 1 μM with pooled cryopreserved human hepatocytes (mixed gender; 400 pl, 1.0 million viable cells/ml) for different time points (0, 20, 40 or 60 min) at 37° C. The cell density and viability were determined by trypan blue is exclusion method. The incubation was terminated by acetonitrile. The collected samples were centrifuged for 20 min at 2272×g and analyzed. The samples were analyzed by UPLC/PDA with high resolution mass spectrometry (QE-Orbitrap-MS on DDI mode) to monitor disappearance of the compound. Verapramil 1 μM was used as a disappearance rate control. The analytical method was optimized by using the parent compounds for optimum chromatographic properties (peak shape and retention) and mass spectrometric ionization. The Ion chromatograms were extracted from the total ion chromatograms using calculated monoisotopic accurate masses with 5 mDa window. Disappearance was based on LC/MS peak areas, marking 0 min as 100%. The first-order rate constants k (min-1) of the metabolism were obtained from the slope of time versus logarithm (% of remaining compound) plot using Excel software. The in vitro half-life (t1/2) of study compound is defined as: t1/2In2/k. Calculated half-life is based on compound disappearance in human liver hepatocytes.

rat hepatocytes = assay: In vitro metabolic stability in rat hepatocytes; type: in vitro ADME; conditions: 1 μM, 37° C., up to 60 min
Procedure: The linear or macrocyclic compounds 1-14 and 23-26 (SEQ ID NOs: […]) were incubated in concentration 1 μM with pooled cryopreserved rat hepatocytes (Sprague-Dawley, male; 400 pl, 1.0 million viable cells/ml for compounds 1-8, 11-12 and 23-26 or 100 μl, 0.1 million viable cells/ml for compounds 9-10 and 13-14) for different time points (0, 10, 20, 40 or 60 min) at 37° C. The cell density and viability were determined by trypan blue exclusion method. The incubation was terminated by acetonitrile. The collected samples were centrifuged for 20 min at 2272×g and analyzed. The samples were analyzed is by UHPLC/PDA with high resolution mass spectrometry (QE-Orbitrap-MS on DDI mode) (compounds 1-8, 11-12 and 23-26) or HHPLC-ToF mass spectrometry (for compounds 9-and 13-14) to monitor disappearance of the compound. Verapramil 1 μM was used as a disappearance rate control. The analytical method was optimized by using the parent compounds for optimum chromatographic properties (peak shape and retention) and mass spectrometric ionization. The Ion chromatograms were extracted from the total ion chromatograms using calculated monoisotopic accurate masses with 5 mDa window. Disappearance was based on LC/MS peak areas, marking 0 min as 100%. The first-order rate constants k (min-1) of the metabolism were obtained from the slope of time versus logarithm (% of remaining compound) plot using Excel software. The in vitro half-life (t1/2) of study compound is defined as: t1/2In2/k. Calculated half-life is based on compound disappearance in rat liver hepatocytes.

[2] = test system: 3D in vitro model of blood-brain barrier; assay: Permeation in a 3D in vitro model of blood-brain barrier; type: in vitro ADME, human endothelial cells, rat astrocytes and cortical neurons; conditions: 500 nM, 2 h
Procedure: Due to the interest of developing CDNF- and MANF-derived peptides for treatment of CNS diseases with peripheral route of administration, and the fact that macrocyclization can improve cell-penetration and distribution properties of peptides, the ability of the compounds to pass the blood-brain barrier was tested in an established in vitro model of the blood-brain barrier. For this purpose, macrocyclic and linear compounds were incubated at 500 nM for 2 h in a two-compartment in vitro blood-brain barrier model (n=4) followed by sample collection is and LC-MS/MS analysis.
Primary culture of astrocytes. Rat astrocytes were prepared from a E15 embryos. Briefly, pregnant female rats (Wistar, Janvier Labs) of 15 days of gestation were deeply anesthetized in a (CO2 chamber) and then killed by cervical dislocation. Fetuses were collected and immediately placed in ice-cold L15 Leibovitz medium with a 2% penicillin (10,000 U/mL) and streptomycin (10 mg/mL) solution (PS) and 1% bovine serum albumin (BSA). Full brains were treated for 20 min at 37° C. with a trypsin- EDTA solution at a final concentration of 0.05% trypsin and 0.02% EDTA. Dissociated cells were cultured in DMEM 10% fetal calf serum. Purified astrocytes were used at passage 4 (P4).
Culture of human endothelial cells. A vial of HBMEC (Primary Human Brain Microvascular Endothelial Cells, ACBRI 376) was used at a specific passage 8 (P8).
Primary culture of cortical neurons. Rat cortical neurons were cultured as described by Callizot et al., 2013 with modification. Briefly, pregnant female rats (Wistar, Janvier Labs) of […] were deeply anesthetized in a CO2 chamber and then killed by cervical io dislocation. Fetuses were collected and immediately placed in ice-cold L15 Leibovitz medium with a 2% penicillin (10,000 U/mL) and streptomycin (10 mg/mL) solution (PS) and 1% bovine serum albumin (BSA). Cortices were treated for 20 min at 37° C. with a trypsin-EDTA solution at a final concentration of 0.05% trypsin and 0.02% EDTA. The dissociation was stopped by addition of Dulbecco's modified Eagle's medium (DMEM) with 4.5 g/L of glucose, containing is DNAse I grade II (final concentration 0.5 mg/m L) and 10% fetal calf serum (FCS). Cells were mechanically dissociated by three forced passages through the tip of a 10-m1 pipette. Cells were then centrifuged at 515×g for 10 min at 4° C. The pellet resuspended in a defined culture medium consisting of Neurobasal medium with a 2% solution of B27 supplement, 2 mmol/L of L-glutamine, 2% of PS solution, 10 ng/mL of brain-derived neurotrophic factor (BDNF). Viable cells were counted in a Neubauer cytometer, using the trypan blue exclusion test. The cortical neurons were seeded in the bottom of well pre-coated with poly-L-lysine at a density of 255,000 per well in 24-well plate with insert and cultured at 37° C. in an air (95%)-CO2 (5%) incubator. The culture medium was changed every other day.
Co-Culture of endothelial cells, astrocytes and primary cortical neurons. The procedure was performed as previously published (Xue et al., 2013 with modifications, Callizot et al., 2017). Briefly, on day 0, purified astrocytes (P4) were rapidly thawed in a water bath at 37° C. The cells were immediately put in DMEM containing 10% of FCS. Cell suspension was centrifuged at 515×g for 5 min at 4° C. and the pellets were suspended in DMEM F12 containing 10% of FCS. Cells were seeded in the outer side of the insert membrane (PET, 1 μm) at the density of 45,000 cells per insert and cultured at 37° C. in an air (95%)-CO2 (5%) incubator. Thirty-six (36) hours after the astrocytes seeding, HBMEC (P8) were rapidly thawed in a water bath at 37° C. and immediately put in DMEM containing 10% of FCS. Cell suspension was centrifuged at 515×g for 5 min at 4° C. and the pellets were suspended in EGM-2 bullet kit containing 5% of FCS, 1% of PS solution, 1.4 μM of Hydrocortisone, 5 μg/mL of acid ascorbic, 1% of lipid mixture, 10 mM of HEPES, 1 ng/mL of bFGF. […]

stability in rat plasma as compared to linear counterpart [1]: improved stability
stability in human hepatocytes as compared to linear counterpart (human hepatocytes): significantly improved stability
stability in rat hepatocytes as compared to linear counterpart (rat hepatocytes): significantly improved stability
ability to pass through the in vitro blood-brain barrier as compared to linear counterpart [2]: improved ability to pass
Compound: CC[C@H](C)[C@@H]1NC(=O)[C@H](CCCCN)NC(=O)[C@H](CCCCN)NC(=O)[C@H](CC(C)C)NC(=O)[C@H](CCC(=O)O)NC(=O)[C@H](CCCCN)NC(=O)[C@H](C(C)C)NC(=O)[C@H](CCCNC(=N)N)NC(=O)[C@H](CC(C)C)NC(=O)[C@H](CCCCN)NC(=O)[C@H](CCCCN)NC(=O)[C@H](CC(C)C)NC(=O)[C@H](CC(=O)O)NC(=O)[C@H](C(C)C)NC(=O)[C@H](CCC(=O)O)NC(=O)[C@H](C)NC(=O)[C@@H]2CSSC[C@H](NC(=O)[C@H]([C@@H](C)O)NC(=O)[C@H](CCC(=O)O)NC(=O)CNC(=O)[C@H](Cc3c[nH]c4ccccc34)NC(=O)[C@H](CC(=O)O)NC(=O)[C@H](CC(=O)O)NC(=O)[C@H](CC(C)C)NC1=O)C(=O)N[C@@H](CCCCN)C(=O)NCC(=O)N2 [Compound 4] (cyclo(AEVDLKKLRVKELKKILDDWGETCKGC); disulfide 24-27)
